Bounds are passed on as bounds.

The source of these data is PMC12172596, “Unveiling New Triazoloquinoxaline‐Based PROTACs Designed for the Selective Degradation of the ncBAF Chromatin Remodeling Subunit BRD9” (Chemistry (Weinheim an Der Bergstrasse, Germany), 2025).

One series has as its target T1, BRD7 (Homo sapiens, UniProt Q9NPI1).
T1 construct: WB analysis showing BRD9 and BRD7 protein levels following 48‐hours treatment with compound 9; endogenous in cells; host or cells: U937 (ATCC)
T1 sequence (Q9NPI1 1-651): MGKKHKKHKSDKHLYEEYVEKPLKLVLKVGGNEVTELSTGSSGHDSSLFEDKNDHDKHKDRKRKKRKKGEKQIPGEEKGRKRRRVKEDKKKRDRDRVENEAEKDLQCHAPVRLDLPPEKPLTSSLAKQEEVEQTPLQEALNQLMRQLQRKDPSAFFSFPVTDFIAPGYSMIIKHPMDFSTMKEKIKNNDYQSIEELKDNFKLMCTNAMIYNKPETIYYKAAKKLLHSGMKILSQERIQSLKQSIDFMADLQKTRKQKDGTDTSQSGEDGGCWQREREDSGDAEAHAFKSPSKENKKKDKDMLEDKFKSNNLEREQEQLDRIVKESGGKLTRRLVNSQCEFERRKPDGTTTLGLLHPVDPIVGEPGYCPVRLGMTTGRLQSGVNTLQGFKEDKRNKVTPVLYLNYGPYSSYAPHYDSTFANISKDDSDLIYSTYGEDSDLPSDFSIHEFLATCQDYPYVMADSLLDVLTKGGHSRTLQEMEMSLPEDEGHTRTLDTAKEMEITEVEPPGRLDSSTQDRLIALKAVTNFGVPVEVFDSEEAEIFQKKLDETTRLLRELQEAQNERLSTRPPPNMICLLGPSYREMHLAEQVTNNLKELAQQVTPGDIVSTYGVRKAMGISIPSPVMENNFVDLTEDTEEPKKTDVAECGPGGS
Nature of the series: Western blotting of BRD7 protein levels in U937 cells. Type of series: cell-based. The settings on record: 48 hours treatment, western blot. The procedure: (§1) The AML U937 cell line (ATCC) was grown in Roswell Park Memorial Institute (RPMI) 1640 Medium with the addition of 10% fetal bovine serum (FBS), 1% L‐glutamine, and 1% antibiotics (100 U/mL penicillin, 100 µg/mL streptomycin, and 250 ng/mL amphotericin‐B). Cells have been authenticated by STR profiling.
Western blot was performed according to the previous protocol.^[ [71], [72] ^] U937 AML cells were pelleted and then lysed in RIPA buffer (1% Triton X‐100, 0.1% SDS, 150 mM NaCl, 1 mM EDTA pH 8, 10 mM Tris‐HCl pH 8) added with 1% protease inhibitor cocktail. The resulting lysate was subjected to centrifugation for 15 minutes at 4 °C. After that, the supernatant was collected and supplemented with 6X Laemmli buffer (0.217 M Tris‐HCl pH 8.0, 52.17% SDS, 17.4% glycerol, 0.026% bromophenol blue, 8.7% beta‐mercapto‐ethanol) and boiled for 3 minutes at 99 °C,25 µg of protein extract were resolved by SDS‐polyacrylamide gel electrophoresis and then transferred on nitrocellulose membrane (Bio‐Rad). The membrane was probed with anti‐BRD9 (Bethyl Laboratories #A303‐781A), anti‐BRD7 (Invitrogen #PA5‐40379), anti‐GADPH (Elabscience # E‐AB‐40337), and anti‐α‐tubulin (Elabscience # E‐AB‐20036). The protein signal was visualized by enhanced chemiluminescence method (ECL) through the Bio‐Rad Chemidoc machine. ImageJ software was used for densitometric analysis. […]
For orientation: Immunoblotting shows a protein as a band on a membrane.

The nature of a further series: Human plasma stability. Type of series: in vitro ADME. The settings on record: incubation up to 120 minutes, 37 °C, read-out: compound recovery after incubation with human plasma. On the procedure:
The plasma stability of compounds 2 and 9 was evaluated. Briefly, the plasma was equilibrated at 37 °C, and biotransformation was initiated by adding the compound solution and mixing. At each specified time point (0, 60, and 120 minutes), test compounds were extracted into 200 µL ice‐cold methanol to stop degradation. Tolbutamide was added during the quenching phase. Finally, the concentration of the test compound was monitored by LC‐MS. The percentage of the test compound remaining at each individual time point was reported. The results are reported as mean ± SD from three independent experiments. Procaine and procainamide were used as controls.

In another series the test system is U937 cells. Nature of the series: CCK8 viability assay in U937 cells. The format is cell-based, human. On the procedure: as §1
CCK8 was purchased from Elabscience and used according to manufacturer instructions, briefly: 100 µL of cell suspension was added to each well using a 96‐well microplate. Cells were then incubated at 37 °C, in a 5% CO2 incubator for 24 hours. Compounds were added to the cells and incubated for an additional 48 hours at 37 °C. Next, 10 µL of CCK‐8 Buffer was added to each well, and cells were incubated again for 4 hours. Next, 450 nm absorbance was measured using a TECAN microplate reader.
A general note: Formazan colour is commonly taken as a measure of viable cells.

The nature of series [1]: Microsomal stability in human liver microsomes (HLMs). The settings on record: LC-MS/MS analysis. The format is in vitro ADME. On the procedure:
In our assay we followed the loss of the test compounds over time under CYP‐mediated metabolic pathways. The extent of hepatic metabolism allowed us the determination of different pharmacokinetic parameters such as in vitro t1/2, CLint, in vitro and CLint, in vivo. In vitro t1/2 and CLint, in vitro of test compounds after liver microsomes incubation were calculated according to “well‐stirred” model. In the “well‐stirred” model, the liver is represented by a single compartment, where the unbound concentration of a drug leaving the liver is in equilibrium with the intracellular unbound concentration in the hepatocytes.^[ [53] ^] Predicted CLint, invivo values were determined using human PBSF.^[ [54] ^]
The microsomal stability of compounds 2 and 9 was assessed according to the previously described protocol.^[ [73] ^] […] The supernatants were collected and analyzed by LC‐MS/MS. The extent of metabolism is quantified as a percentage of the parent compound turnover. […] In vitro half‐lives (t1/2) were calculated using the expression t1/2 = 0.693/b, where b is the slope found in the linear fit of the natural logarithm of the fraction remaining of the parent compound versus incubation time. Microsomal intrinsic clearance was calculated as CLint , in vitro = (1000) × (0.693/t1/2)/0.5. […]
Background: Microsomes from liver hold many membrane-bound enzymes, among them those of drug oxidation.

For `CCCCc1nnc2c(Nc3cccc(NC(=O)CCCCCCOCCOCC(=O)N[C@H](C(=O)N4C[C@H](O)C[C@H]4C(=O)NCc4ccc(-c5scnc5C)cc4)C(C)(C)C)c3)nc3ccccc3n12` [compound 9], the BRD7 protein levels entry on BRD7 is “not interfering with BRD7 protein levels”. In the series “Human plasma stability”, the recovery at 120 min was not below 90%. For the same compound, the U937 cell viability entry with U937 cells (CCK8, 48 hours treatment) is “significantly impaired leukemic cell viability”. Besides, the “ability to reduce leukemic cell viability and AML cell proliferation compared with dBRD9” value in the series with U937 cells (U937 cells, versus reference dBRD9) was “superior ability to reduce leukemic cell viability and AML cell proliferation”. Also, in series [1], the “primary metabolites after incubation with HLMs” value is given as “dealkylation reactions”.
